Literature values in patent US12376586B2, “Microcapsules comprising cinmethyln in the core and a polyurea derived from diphenylmethane diisocyanate or an oligomer thereof” (BASF Agro B.V., priority 2017, dated 2025).

What was measured:
[1] = at 20° C.
[2] = at 20° C.; remark: listed apart in the source

For `Cc1ccccc1CO[C@@H]1C[C@]2(C(C)C)CC[C@@]1(C)O2` (racemic) [Cinmethylin, (±)-2-exo-(2-methylbenzyloxy)-1-methyl-4-isopropyl-7-oxabicyclo[2.2.1]heptane], the vapor pressure [1] is listed as 8.1·10^−3 Pa and the solubility in water [2] is listed as 0,063 g·L^−1.
